Assay results: patent publication US20260167622A1, “PAN-KRAS DEGRADING AGENT, AND PREPARATION METHOD THEREFOR AND USE THEREOF” (LEADINGTAC PHARMACEUTICAL (SHAOXING) CO., LTD., priority 2022, published 2026)
pIC50: −log10 of the molar value.

Tests used:
Assay type in all cases: cell-based
[1] = test system: KRAS G12D mutant human lung cancer cell A427; experiment: 3D cell proliferation inhibition assay, A427; details: A-427, 168 h, 3D culture, 7 days, CTG
Outline: (§1)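 Cells seeded in low-adsorption plates at 5×10^2 cells/well (MKN1 1×10^3) with compounds at final 10000–0.026 nM, 0.2% DMSO, 3D culture 7 days at 37 °C. Viability by CellTiter-Glo luminescence; inhibition normalised to DMSO and medium-only controls, IC50 from nonlinear log-concentration fit.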

[2] = test system: KRAS G12D mutant human metastatic pancreatic cancer cell AsPc-1; experiment: 3D cell proliferation inhibition assay, AsPc-1; details: ASPC1, 168 h, 3D culture, 7 days, CTG
Outline: as §1

[3] = test system: KRAS WT human gastric cancer cell MKN1; experiment: 3D cell proliferation inhibition assay, MKN1; details: MKN-1, 168 h, 3D culture, 7 days, CTG
Outline: as §1

[4] = test system: KRAS G12D mutant human gastric cancer cell AGS; experiment: 3D cell proliferation inhibition assay, AGS; details: 168 h, 3D culture, 7 days, CTG
Outline: as §1

[5] = test system: KRAS G13D mutant human colorectal cancer epithelial cell DLD-1; experiment: 3D cell proliferation inhibition assay, DLD-1; details: DLD-1, 168 h, 3D culture, 7 days, CTG
Outline: as §1

[6] = test system: KRAS G12V mutant human colorectal cancer cell SW620; experiment: 3D cell proliferation inhibition assay, SW620; details: SW-620, 168 h, 3D culture, 7 days, CTG
Outline: as §1

[7] = target: T1, KRAS G12V protein in SW900 cells (Homo sapiens, UniProt P01116, G12V); experiment: KRAS degradation assay (Western Blot) in SW900 cells; details: 24 h
T1 construct: endogenous in cells; host or cells: SW900
T1 sequence (P01116 1-188 isoform P01116-2 G12V): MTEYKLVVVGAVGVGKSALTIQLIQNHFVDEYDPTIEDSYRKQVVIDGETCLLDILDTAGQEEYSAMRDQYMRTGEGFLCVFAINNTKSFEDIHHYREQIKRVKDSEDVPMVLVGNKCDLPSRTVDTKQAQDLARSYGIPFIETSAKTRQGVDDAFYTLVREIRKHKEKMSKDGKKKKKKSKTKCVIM
Outline: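 Cells seeded at 5×10^5 cells/well, incubated overnight, then treated 24 h at 37 °C with compound (final 0.03–3000 nM, 0.25% DMSO). KRAS in lysates measured by Western blot with β-actin normalisation; degradation versus vehicle control fitted to give DC50 and Dmax.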

[8] = test system: KRAS G12C mutant human non-small cell lung cancer cell NCI-H358; experiment: 3D cell proliferation inhibition assay, NCI-H358; details: NCI-H358, 168 h, 3D culture, 7 days, CTG
Outline: as §1

[9] = test system: KRAS G12V mutant human lung squamous carcinoma cell SW900; experiment: 3D cell proliferation inhibition assay, SW900; details: SW900, 168 h, 3D culture, 7 days, CTG
[10] = target: T2, KRAS G12D protein in AsPc-1 cells (Homo sapiens, UniProt P01116, G12D); experiment: KRAS degradation assay (Western Blot) in AsPc-1 cells; details: for DC50: 24 h; for Dmax: ASPC1, 24 h
T2 construct: endogenous in cells; host or cells: AsPc-1
T2 sequence (P01116 1-188 isoform P01116-2 G12D): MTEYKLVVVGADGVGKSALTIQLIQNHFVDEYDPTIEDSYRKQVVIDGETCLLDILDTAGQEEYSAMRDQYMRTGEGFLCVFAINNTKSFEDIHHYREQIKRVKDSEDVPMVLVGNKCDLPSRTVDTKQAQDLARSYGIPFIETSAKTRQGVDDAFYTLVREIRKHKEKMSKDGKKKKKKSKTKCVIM
Text: (§2) Test Example 5: KRAS G12C, KRAS G12D, KRAS G12V, KRAS G13D, and KRAS WT (Expanded) Degradation Assays
(§3) The degradation effect of the compounds on KRAS was investigated on KRAS G12C mutant human non-small cell lung cancer cell NCI-H358, KRAS G12D mutant human metastatic pancreatic cancer cell AsPc-1, KRAS G12D mutant human lung cancer cell A427, KRAS G12V mutant human colorectal cancer cell SW620, KRAS G12V mutant human lung cancer cell SW900, KRAS G13D mutant human colorectal cancer epithelial cell DLD-1, and KRAS WT human gastric cancer cell MKN-1. The specific procedures were as follows: 0.95 mL of cells were seeded into each well of a 24-well cell culture plate to achieve a cell density of 5×10^5 cells/well; and the cell plate was incubated in an incubator at 37° C. with 5% CO2 overnight. Then 50 μL of the compound solution after dilution was added to each of the wells with the corresponding cells, so that the final concentration of the compound was in a range of 0.03-3000 nM. The final concentration of DMSO was 0.25%. After the compounds were added, the cell plate was incubated in an incubator at 37° C. with 5% CO2 for 24 h. The culture medium in the 24-well cell culture plate was then removed, and the plate was washed twice with 1×PBS (KeyGEN). 120 μL of RIPA (strong) lysis buffer (Beyotime) (supplemented with 1 mM phenylmethylsulfonyl fluoride, a protease inhibitor mixture (Beyotime), and a protease phosphatase inhibitor mixture (Beyotime)) was added to lyse adherent SW900 cells at the bottom of the cell culture plate. After the plate was left to stand on ice for 30 min, the protein lysate in each well was transferred to a 1.5 mL centrifuge tube and centrifuged at 15000 g for 20 min at 4° C. The cell lysate supernatants after centrifugation were cryopreserved in a refrigerator at −80° C. for later use.
(§4) After the samples of the cell lysate supernatants that had been prepared were thawed from the refrigerator at −80° C., the total protein concentrations of the cell lysates were determined using a BCA protein quantification kit (Tiangen). The total protein concentrations of the samples were then adjusted to 0.5 μg/μL with PBS and 5×SDS-PAGE protein loading buffer (Beyotime), and the samples were incubated in a water bath at 100° C. for 15 min. The samples were then incubated in an ice bath for 5 min and centrifuged at 14000 g for 1 min at 4° C., and the supernatants were mixed well as loading samples for the Western Blot assay. The samples were loaded into wells of a 10% precast gel (KeyGEN) with a loading volume of 10 μL (total protein: 5 μg), a sufficient Tris-MOPS-SDS running buffer (Adamas) was added, and then electrophoresis was performed at a constant voltage of 120 V for 55 min. After the electrophoresis, the proteins on the gel were transferred to PVDF membranes at a constant current of 250 mA for 55 min. After the membrane transfer, the PVDF membranes were incubated in 1× Quick Block blocking buffer (Beyotime)at room temperature for 30 min. After the blocking, the PVDF membranes were separately incubated at 4° C. overnight with the KRAS antibody (Abcam) diluted in a ratio of 1:1000 and the β-actin antibody (Abcam) diluted in a ratio of 1:2000 in 5% BSA as the diluent, and then washed with 1×TBST buffer (2.4 g of Tris, 8.8 g of NaCl, 1.5 mL of Tween 20, with pH adjusted to 7.4, with the volume brought to 1 L) 3 times for 10 min/time. The membranes were incubated with a secondary antibody (Abcam) diluted in 5% BSA at room temperature for 2 h, and then washed with 1×TBST buffer 3 times for 10 min/time. Finally, the membranes were incubated with Clarity Western ECL Substrate (BIO-RAD) for 5 min for luminescence and color development, and a ChemiScope 6200 Touch chemiluminescence imaging system (Clinx) was used for color development and protein mapping. Gray value analysis of the protein maps was performed using the chemiluminescence analysis software (Clinx). […]

[11] = target: T3, KRAS G13D protein in DLD-1 cells (Homo sapiens, UniProt P01116, G13D); experiment: KRAS degradation assay (Western Blot) in DLD-1 cells; details: 24 h
T3 construct: endogenous in cells; host or cells: DLD-1
T3 sequence (P01116 1-188 isoform P01116-2 G13D): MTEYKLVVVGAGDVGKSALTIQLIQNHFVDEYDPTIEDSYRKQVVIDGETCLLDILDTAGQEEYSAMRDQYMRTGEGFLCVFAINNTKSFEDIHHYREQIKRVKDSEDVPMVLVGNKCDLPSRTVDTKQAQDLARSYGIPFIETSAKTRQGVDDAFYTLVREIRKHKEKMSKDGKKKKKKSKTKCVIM
Text: as §2, §3, §4

[12] = target: T4, KRAS G12V protein in SW620 cells (Homo sapiens, UniProt P01116, G12V); experiment: KRAS degradation assay (Western Blot) in SW620 cells
T4 construct: endogenous in cells; host or cells: SW620
T4 sequence (P01116 1-188 isoform P01116-2 G12V): as the sequence (P01116 1-188 isoform P01116-2 G12V) above
Outline: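 Degradation of KRAS measured by Western blot after 24 h exposure to compound (0.03–3000 nM final). Values are DC50 and Dmax.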

pIC50 [1] | pIC50 [2] | pIC50 [3] | pIC50 [4] | pIC50 [5] | pIC50 [6] | DC50 [7] [µM] | Dmax [7] [%] | pIC50 [8] | pIC50 [9] | DC50 [10] [µM] | Dmax [10] [%] | DC50 [11] [µM] | Dmax [11] [%] | DC50 ([12]; 24 h) [µM] | Dmax ([12]; SW-620, 24 h) [%] | Compound
7.00 to 7.30 | ≥ 7.30 | ≥ 7.30 | ≥ 7.30 | ≥ 7.30 | 8.47 | ≤ 0.05 | 80 to 100 | 7.00 to 7.30 | ≥ 7.30 |  |  |  |  |  |  | C#Cc1c(F)ccc2cc(O)cc(-c3ncc4c(N5CCCOCC5)nc(OCC5(CN6CCN(CC7CCC8(CC7)CCN(C(=O)c7ccc(C)c(N9CCC(=O)NC9=O)c7)CC8)CC6)CC5)nc4c3F)c12 [Example 36, 1-(5-(9-((4-((1-(((7-(8-ethynyl-7-fluoro-3-hydroxynaphthalen-1-yl)-8-fluoro-4-(1,4-oxazepan-4-yl)pyrido[4,3-d]pyrimidin-2-yl)oxy)methyl)cyclopropyl)methyl)piperazin-1-yl)methyl)-3-azaspiro[5.5]undecane-3-carbonyl)-2-methylphenyl)dihydropyrimidine-2,4(1H,3H)-dione]
 |  |  |  | 7.06 | 7.45 | ≤ 0.05 | 80 to 100 | 7.93 |  | ≤ 0.05 | 50 to 80 |  |  |  |  | C#Cc1cccc2cc(O)cc(-c3ncc4c(N5CCCOCC5)nc(OCC5(CN6CCN(CC7CCC8(CC7)CCN(C(=O)c7ccc(OC)c(N9CCC(=O)NC9=O)c7)CC8)CC6)CC5)nc4c3F)c12 [Example 39, 1-(5-(9-((4-((1-(((7-(8-ethynyl-3-hydroxynaphthalen-1-yl)-8-fluoro-4-(1,4-oxazepan-4-yl)pyrido[4,3-d]pyrimidin-2-yl)oxy)methyl)cyclopropyl)methyl)piperazin-1-yl)methyl)-3-azaspiro[5.5]undecane-3-carbonyl)-2-methoxyphenyl)dihydropyrimidine-2,4(1H,3H)-dione]
6.96 | 7.73 | 7.28 | 7.56 | 7.72 | 8.34 | 0.0059 | 100 | 8.14 | 7.81 | 0.0134 | 100 |  |  | 0.0076 | 100 | C#Cc1c(F)ccc2cc(O)cc(-c3ncc4c(N5CCOCC(C)(O)C5)nc(OCC5(CN6CCN(CC7CCC8(CC7)CCN(C(=O)c7ccc(OC)c(N9CCC(=O)NC9=O)c7)CC8)CC6)CC5)nc4c3F)c12 (stereo not drawn) [Example 165, 1-(5-(9-((4-((1-(((7-(8-ethynyl-7-fluoro-3-hydroxynaphthalen-1-yl)-8-fluoro-4-(6-hydroxy-6-methyl-1,4-oxazepan-4-yl)pyrido[4,3-d]pyrimidin-2-yl)oxy)methyl)cyclopropyl)methyl)piperazin-1-yl)methyl)-3-azaspiro[5.5]undecane-3-carbonyl)-2-methoxyphenyl)dihydropyrimidine-2,4(1H,3H)-dione]

Further lines, the molecule ahead of its results:

Compound | pIC50 [1] | pIC50 [2] | pIC50 [3] | pIC50 [4] | pIC50 [5] | pIC50 [6] | DC50 [7] [µM] | Dmax [7] [%] | pIC50 [8] | pIC50 [9] | DC50 [10] [µM] | Dmax [10] [%] | DC50 [11] [µM] | Dmax [11] [%] | DC50 ([12]; 24 h) [µM] | Dmax ([12]; SW-620, 24 h) [%]
CCc1c(F)ccc2cc(O)cc(-c3ncc4c(N5CCC[C@@](C)(O)C5)nc(OCC5(CN6CCN(CC7CCC8(CC7)CCN(C(=O)c7ccc(OC)c(N9CCC(=O)NC9=O)c7)CC8)CC6)CC5)nc4c3F)c12 [Example 42, (R)-1-(5-(9-((4-((1-(((7-(8-ethyl-7-fluoro-3-hydroxynaphthalen-1-yl)-8-fluoro-4-(3-hydroxy-3-methylpiperidin-1-yl)pyrido[4,3-d]pyrimidin-2-yl)oxy)methyl)cyclopropyl)methyl)piperazin-1-yl)methyl)-3-azaspiro[5.5]undecane-3-carbonyl)-2-methoxyphenyl)dihydropyrimidine-2,4(1H,3H)-dione] | 6.30 to 7.00 | ≥ 7.30 | ≥ 7.30 | ≥ 7.30 | ≥ 7.30 | 8.67 | ≤ 0.05 | 80 to 100 | ≥ 7.30 | ≥ 7.30 |  |  | ≤ 0.05 | 80 to 100 |  | 
CCc1cccc2cc(O)cc(-c3ccc4c(N5CCC[C@@](C)(O)C5)nc(OCC5(CN6CCN(CC7CCC8(CC7)CCN(C(=O)c7ccc(C)c(N9CCC(=O)NC9=O)c7)CC8)CC6)CC5)nc4c3F)c12 [Example 49, (R)-1-(5-(9-((4-((1-(((7-(8-ethyl-3-hydroxynaphthalen-1-yl)-8-fluoro-4-(3-hydroxy-3-methylpiperidin-1-yl)quinazolin-2-yl)oxy)methyl)cyclopropyl)methyl)piperazin-1-yl)methyl)-3-azaspiro[5.5]undecane-3-carbonyl)-2-methylphenyl)dihydropyrimidine-2,4(1H,3H)-dione] |  |  | 7.41 |  | 7.34 | 7.56 | 0.0629 | 75.3 | 7.17 | 6.28 | 0.822 | 57 |  |  |  | 
C#Cc1c(F)ccc2cc(O)cc(-c3ncc4c(N5CCCC(C)(N)C5)nc(OCC5(CN6CCN(CC7CCC8(CC7)CCN(C(=O)c7ccc(OC)c(N9CCC(=O)NC9=O)c7)CC8)CC6)CC5)nc4c3F)c12 (stereo not drawn) [Example 163, 1-(5-(9-((4-((1-(((4-(3-amino-3-methylpiperidin-1-yl)-7-(8-ethynyl-7-fluoro-3-hydroxynaphthalen-1-yl)-8-fluoropyrido[4,3-d]pyrimidin-2-yl)oxy)methyl)cyclopropyl)methyl)piperazin-1-yl)methyl)-3-azaspiro[5.5]undecane-3-carbonyl)-2-methoxyphenyl)dihydropyrimidine-2,4(1H,3H)-dione] | 6.25 | 6.43 | 6.43 | 6.23 |  | 6.54 | 0.251 | 71 | 6.38 | 6.63 | 0.185 | 89 |  |  |  | 
